Data: patent US20130289019A1, “METHODS OF TREATING BEHAVIORIAL AND/OR MENTAL DISORDERS” (AMAZING GRACE, INC., priority 2012, published 2013)

System: rats (NAc infusion)
Assay: swim test scores during bilateral fluoxetine infusion in the NAc
Format: in vivo, rat

**Q.** `CNCCC(Oc1ccc(C(F)(F)F)cc1)c1ccccc1` (centres unmarked) [Fluoxetine] was tested. Which “Swimming + Climbing (total escape attempts), FLU” value (shortened to “Swimming + Climbing”) (0.2 mM bilateral in NAc, fluoxetine on Day 2 (Ringer Day 3)) did it give?
**A.** Its value is 54 ± 30.

**Q.** What about the “Swimming + Climbing” value (0.2 mM bilateral in NAc, fluoxetine on Day 3 (Ringer Day 2)) of the same compound?
**A.** The value was 74 ± 13.

**Q.** What about the “Swimming + Climbing” value (0.2 mM bilateral in NAc, on Day 2 or Day 3 (combined)) of the same compound?
**A.** Its value is 66 ± 12.

**Q.** And the “Swimming + Climbing” value (0.5 mM bilateral in NAc, fluoxetine on Day 2 (Ringer Day 3))?
**A.** The value was 51 ± 9.

**Q.** And the “Swimming + Climbing” value (0.5 mM bilateral in NAc, fluoxetine on Day 3 (Ringer Day 2))?
**A.** The value was 81 ± 9.

**Q.** And the “Swimming + Climbing” value (0.75 mM bilateral in NAc, fluoxetine on Day 2 (Ringer Day 3))?
**A.** The value was 58 ± 11.

**Q.** And the “Swimming + Climbing” value (0.75 mM bilateral in NAc, fluoxetine on Day 3 (Ringer Day 2))?
**A.** The value was 73 ± 11.

**Q.** What about the “Swimming + Climbing” value (0.75 mM bilateral in NAc, on Day 2 or Day 3 (combined)) of the same compound?
**A.** Its value is 67 ± 7.
